Test results taken from patent US12583866B2, “Pyrido[2,3-b][1,4]oxazines or tetrahydropyrido[2,3-b][1,4]oxazepines as IAP antagonists” (BEIGENE, LTD., priority 2020, dated 2026).

What was measured:
[1] = target: T1, recombinant human XIAP-BIR3 protein (Homo sapiens, UniProt P98170); assay: Recombinant human XIAP-BIR3 biochemical assay (HTRF, peptide displacement); details: 3.7 nM XIAP-BIR3, 7.6 nM AbuRPF-K(5-Fam)-NH2 peptide, read-out: Protein binding IC50 (nM) XIAP
T1 construct: recombinant human XIAP-BIR3 protein; purchased Reaction biology APT-11-374
T1 sequence (P98170 241-356 limits assumed): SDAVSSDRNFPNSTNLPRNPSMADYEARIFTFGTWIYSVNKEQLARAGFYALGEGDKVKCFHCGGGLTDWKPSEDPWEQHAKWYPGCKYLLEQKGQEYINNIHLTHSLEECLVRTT
Method: III. Recombinant Human XIAP-BIR3 Biochemical Assay
(§1) Compounds disclosed herein were tested for blocking of recombinant human XIAP-BIR3 protein (Cat: APT-11-374, Reaction biology) with its peptide in an assay based on Homogeneous Time Resolved Fluorescence. 3.7 nM recombinant human XIAP-BIR3 protein was pre-incubated with a serial dilution of compounds disclosed herein (maximum concentration is 10 uM, 4-fold serially diluted, 10 points) at room temperature for 1 hour in an assay buffer containing 20 mM HEPES, pH 7.5, 50 mM NaCl, 0.005% Tween-20, 1 mM DTT. Then 7.6 nM AbuRPF-K(5-Fam)-NH2 (Cat: 709702, GL Biochem) was added to plate incubated at room temperature for 1 hour. Mab Anti-6His Tb cryptate Gold (Cat: 61HI2TLB, Cisbio Bioassays) was added to plate and further incubated at room temperature for 1 hour. The HTRF signals (ex337 nm, em520 nm/490 nm) were read on BMG PHERAstar FS instrument. The inhibition percentage of XIAP-BIR3 interaction with its peptide in presence of increasing concentrations of compounds was calculated based on the ratio of fluorescence at 520 nm to that at 490 nm. The IC50 for each compound was derived from fitting the data to the four-parameter logistic equation by Dotmatics and summarized in table 1.

[2] = target: T2, recombinant human cIAP1-BIR3 protein (Homo sapiens, UniProt Q13490); assay: Recombinant human c-IAP1-BIR3 biochemical assay (HTRF, peptide displacement); details: 1.2 nM cIAP1-BIR3, 3 nM AbuRPF-K(5-Fam)-NH2 peptide, read-out: Protein binding IC50 (nM) c-IAP1
T2 construct: recombinant human cIAP1-BIR3 protein; purchased Reaction biology APT-11-370
T2 sequence (Q13490 253-363 limits assumed): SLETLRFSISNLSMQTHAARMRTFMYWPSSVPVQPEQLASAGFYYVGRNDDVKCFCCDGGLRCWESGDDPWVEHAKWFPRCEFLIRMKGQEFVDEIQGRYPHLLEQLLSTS
Method: I. Recombinant human c-IAP1-BIR3 biochemical assay
as §1, with “cIAP1-BIR3” for “XIAP-BIR3”, “APT-11-370,” for “APT-11-374,”, “1.2” for “3.7”, “3” for “7.6”, “AbuRPF-K (5-Fam)-NH2” for “AbuRPF-K(5-Fam)-NH2”

[3] = target: T3, recombinant human cIAP2-BIR3 protein (Homo sapiens, UniProt Q13489); assay: Recombinant human c-IAP2-BIR3 biochemical assay (HTRF, peptide displacement); details: 3.7 nM cIAP2-BIR3, 3.7 nM AbuRPF-K(5-Fam)-NH2 peptide, read-out: Protein binding IC50 (nM) c-IAP2
T3 construct: recombinant human cIAP2-BIR3 protein; purchased Reaction biology APT-11-372
T3 sequence (Q13489 238-349 limits assumed): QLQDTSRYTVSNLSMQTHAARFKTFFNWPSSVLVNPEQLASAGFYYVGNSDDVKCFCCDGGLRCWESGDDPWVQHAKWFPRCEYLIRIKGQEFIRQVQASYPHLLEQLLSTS
Method: II. Recombinant Human c-IAP2-BIR3 Biochemical Assay
as §1, with “cIAP2-BIR3” for “XIAP-BIR3”, “APT-11-372,” for “APT-11-374,”, “3.7” for “7.6”

An IC50 [1] of 22 nM, an IC50 [2] of 0.24 nM and an IC50 [3] of 0.32 nM were found for `C[C@@H]1CN(CC(=O)N2c3cc(Cc4ccc(F)cc4)cnc3OC[C@@H]2Cc2ccccc2)[C@@H](CN2CCOC[C@H]2C)CN1` [Compound 29, 1-((S)-2-benzyl-7-(4-fluorobenzyl)-2,3-dihydro-1H-pyrido[2,3-b][1,4]oxazin-1-yl)-2-((2R,5R)-5-methyl-2-(((R)-3-methylmorpholino)methyl)piperazin-1-yl)ethan-1-one] in this work.
An IC50 [1] of 7.3 nM, an IC50 [2] of 0.35 nM and an IC50 [3] of 0.72 nM were found for `Cc1ccc([C@H]2COc3ncc(Cc4ccc(F)cc4)cc3N2C(=O)CN2C[C@@H](C)NC[C@@H]2CN2CCOC[C@H]2C)cc1` [Compound 30, 1-((S)-7-(4-fluorobenzyl)-2-(p-tolyl)-2,3-dihydro-1H-pyrido[2,3-b][1,4]oxazin-1-yl)-2-((2R,5R)-5-methyl-2-(((R)-3-methylmorpholino)methyl)piperazin-1-yl)ethan-1-one] in this work.
An IC50 [1] of 5.6 nM, an IC50 [2] of 0.33 nM and an IC50 [3] of 0.71 nM were found for `C[C@@H]1CN(CC(=O)N2c3cc(Cc4ccc(F)cc4)c(C(N)=O)nc3OC[C@@H]2C)[C@@H](CN2CCOC[C@H]2C)CN1` [Compound 31, (S)-7-(4-fluorobenzyl)-2-methyl-1-(2-((2R,5R)-5-methyl-2-(((R)-3-methylmorpholino)methyl)piperazin-1-yl)acetyl)-2,3-dihydro-1H-pyrido[2,3-b][1,4]oxazine-6-carboxamide] in this work.
An IC50 [1] of 5.8 nM, an IC50 [2] of 0.25 nM and an IC50 [3] of 0.36 nM were found for `C[C@@H]1CN(CC(=O)N2c3cc(Cc4ccc(F)cc4)c(C(N)=O)nc3OC[C@@H]2C)[C@@H](CN2[C@H](C)COC[C@H]2C)CN1` [Compound 32, (S)-1-(2-((2R,5R)-2-(((3R,5R)-3,5-dimethylmorpholino)methyl)-5-methylpiperazin-1-yl)acetyl)-7-(4-fluorobenzyl)-2-methyl-2,3-dihydro-1H-pyrido[2,3-b][1,4]oxazine-6-carboxamide] in this work.
An IC50 [1] of 47 nM, an IC50 [2] of 0.74 nM and an IC50 [3] of 1.8 nM were found for `CC(C)C[C@H]1COc2ncc(Cc3ccc(F)cc3)cc2N1C(=O)CN1C[C@@H](C)NC[C@@H]1CN1CCOC[C@H]1C` [Compound 33] in this work.
An IC50 [1] of 23 nM, an IC50 [2] of 0.25 nM and an IC50 [3] of 0.32 nM were found for `COC[C@H]1COc2ncc(Cc3ccc(F)cc3)cc2N1C(=O)CN1C[C@@H](C)NC[C@@H]1CN1[C@H](C)COC[C@H]1C` [Compound 34, 2-((2R,5R)-2-(((3R,5R)-3,5-dimethylmorpholino)methyl)-5-methylpiperazin-1-yl)-1-((S)-7-(4-fluorobenzyl)-2-(methoxymethyl)-2,3-dihydro-1H-pyrido[2,3-b][1,4]oxazin-1-yl)ethan-1-one] in this work.
An IC50 [1] of 46 nM, an IC50 [2] of 0.33 nM and an IC50 [3] of 0.99 nM were found for `COC[C@H]1COc2ncc(Cc3ccc(F)cc3)cc2N1C(=O)CN1C[C@@H](C)NC[C@@H]1CN1CCOC[C@H]1C` [Compound 35, 1-((S)-7-(4-fluorobenzyl)-2-(methoxymethyl)-2,3-dihydro-1H-pyrido[2,3-b][1,4]oxazin-1-yl)-2-((2R,5R)-5-methyl-2-(((R)-3-methylmorpholino)methyl)piperazin-1-yl)ethan-1-one] in this work.
An IC50 [1] of 50 nM, an IC50 [2] of 0.42 nM and an IC50 [3] of 0.8 nM were found for `CCOC[C@H]1COc2ncc(Cc3ccc(F)cc3)cc2N1C(=O)CN1C[C@@H](C)NC[C@@H]1CN1[C@H](C)COC[C@H]1C` [Compound 36] in this work.
An IC50 [1] of 43 nM, an IC50 [2] of 0.29 nM and an IC50 [3] of 0.66 nM were found for `CCOC[C@H]1COc2ncc(Cc3ccc(F)cc3)cc2N1C(=O)CN1C[C@@H](C)NC[C@@H]1CN1CCOC[C@H]1C` [Compound 37, 1-((S)-2-(ethoxymethyl)-7-(4-fluorobenzyl)-2,3-dihydro-1H-pyrido[2,3-b][1,4]oxazin-1-yl)-2-((2R,5R)-5-methyl-2-(((R)-3-methylmorpholino)methyl)piperazin-1-yl)ethan-1-one] in this work.
An IC50 [1] of 49 nM, an IC50 [2] of 0.26 nM and an IC50 [3] of 0.83 nM were found for `CC(C)OC[C@H]1COc2ncc(Cc3ccc(F)cc3)cc2N1C(=O)CN1C[C@@H](C)NC[C@@H]1CN1CCOC[C@H]1C` [Compound 38, 1-((S)-7-(4-fluorobenzyl)-2-(isopropoxymethyl)-2,3-dihydro-1H-pyrido[2,3-b][1,4]oxazin-1-yl)-2-((2R,5R)-5-methyl-2-(((R)-3-methylmorpholino)methyl)piperazin-1-yl)ethan-1-one] in this work.
An IC50 [1] of 28 nM, an IC50 [2] of 0.15 nM and an IC50 [3] of 0.27 nM were found for `CC(C)OC[C@H]1COc2ncc(Cc3ccc(F)cc3)cc2N1C(=O)CN1C[C@@H](C)NC[C@@H]1CN1[C@H](C)COC[C@H]1C` [Compound 39, 2-((2R,5R)-2-(((3R,5R)-3,5-dimethylmorpholino)methyl)-5-methylpiperazin-1-yl)-1-((S)-7-(4-fluorobenzyl)-2-(isopropoxymethyl)-2,3-dihydro-1H-pyrido[2,3-b][1,4]oxazin-1-yl)ethan-1-one] in this work.
An IC50 [1] of 8.2 nM, an IC50 [2] of 0.09 nM and an IC50 [3] of 0.14 nM were found for `C[C@@H]1CN(CC(=O)N2c3cc(Cc4ccc(F)cc4)cnc3OC[C@@H]2COc2ccccc2)[C@@H](CN2[C@H](C)COC[C@H]2C)CN1` [Compound 40, 2-((2R,5R)-2-(((3R,5R)-3,5-dimethylmorpholino)methyl)-5-methylpiperazin-1-yl)-1-((S)-7-(4-fluorobenzyl)-2-(phenoxymethyl)-2,3-dihydro-1H-pyrido[2,3-b][1,4]oxazin-1-yl)ethan-1-one] in this work.
An IC50 [1] of 12 nM, an IC50 [2] of 0.11 nM and an IC50 [3] of 0.24 nM were found for `C[C@@H]1CN(CC(=O)N2c3cc(Cc4ccc(F)cc4)cnc3OC[C@@H]2COc2ccccc2)[C@@H](CN2CCOC[C@H]2C)CN1` [Compound 41] in this work.
An IC50 [1] of 25 nM, an IC50 [2] of 0.34 nM and an IC50 [3] of 0.52 nM were found for `C[C@@H]1CN(CC(=O)N2c3cc(Cc4ccc(F)cc4)cnc3OC[C@@H]2C2CCCCC2)[C@@H](CN2CCOC[C@H]2C)CN1` [Compound 42, 1-((S)-2-cyclohexyl-7-(4-fluorobenzyl)-2,3-dihydro-1H-pyrido[2,3-b][1,4]oxazin-1-yl)-2-((2R,5R)-5-methyl-2-(((R)-3-methylmorpholino)methyl)piperazin-1-yl)ethan-1-one] in this work.
An IC50 [1] of 23 nM, an IC50 [2] of 0.23 nM and an IC50 [3] of 0.27 nM were found for `C[C@@H]1CN(CC(=O)N2c3cc(Cc4ccc(F)cc4)cnc3OC[C@@H]2C2CCCCC2)[C@@H](CN2[C@H](C)COC[C@H]2C)CN1` [Compound 43, 1-((S)-2-cyclohexyl-7-(4-fluorobenzyl)-2,3-dihydro-1H-pyrido[2,3-b][1,4]oxazin-1-yl)-2-((2R,5R)-2-(((3R,5R)-3,5-dimethylmorpholino)methyl)-5-methylpiperazin-1-yl)ethan-1-one] in this work.
An IC50 [1] of 20 nM, an IC50 [2] of 0.36 nM and an IC50 [3] of 0.93 nM were found for `C[C@@H]1CN(CC(=O)N2c3cc(Cc4ccc(F)cc4)cnc3OC[C@@H]2c2ccccc2)[C@@H](CN2[C@H](C)COC[C@H]2C)CN1` [Compound 44] in this work.
